According to ChEMBL document CHEMBL5532665 (J Med Chem, 2024):

What was measured:
[1] = Toxicity in Kunming mouse model assessed as effect on locomotor co-ordination at 139 nmol/kg, sc measured for 10 to 40 mins by rotarod test; format: organism-based; details: in vivo, time 10-40 min
[2] = Selectivity ratio of ED50 for inhibition of gastrointestinal motility in fasted Kunming mouse model treated subcutaneously to ED50 for antinociceptive activity in Kunming mouse model administered subcutaneously by tail-flick test; format: toxicity; details: in vivo, route sc, read-out: Ratio ED50
[3] = molecular target: Kappa-type opioid receptor (Homo sapiens, UniProt P41145); assay: Agonist activity at human KOR expressed in CHO-K1 cells co-expressing G-alpha15 by calcium mobilization assay; format: functional, cell-based; details: cho-k1
[4] = molecular target: Delta-type opioid receptor (Homo sapiens, UniProt P41143); assay: Agonist activity at human DOR expressed in CHO-K1 cells co-expressing G-alpha15 by calcium mobilization assay; format: functional, cell-based; details: cho-k1
[5] = Stability in mouse plasma assessed as half life at 0.01 mol/L measured for 72 hrs by RP-HPLC analysis; format: ADME, cell-free
[6] = Selectivity ratio of ED50 for inhibition of gastrointestinal motility in fasted Kunming mouse model treated subcutaneously to ED50 for antinociceptive activity in Kunming mouse model administered subcutaneously measured for 5 to 15 mins by acetic acid-induced writhing test; format: toxicity; details: in vivo, route sc, read-out: Ratio ED50
[7] = molecular target: Mu-type opioid receptor (Homo sapiens, UniProt P35372); assay: Agonist activity at human MOR expressed in CHO-K1 cells co-expressing G-alpha15 by calcium mobilization assay; format: functional, cell-based; details: cho-k1
Chain of Mu-type opioid receptor (P35372 whole entry): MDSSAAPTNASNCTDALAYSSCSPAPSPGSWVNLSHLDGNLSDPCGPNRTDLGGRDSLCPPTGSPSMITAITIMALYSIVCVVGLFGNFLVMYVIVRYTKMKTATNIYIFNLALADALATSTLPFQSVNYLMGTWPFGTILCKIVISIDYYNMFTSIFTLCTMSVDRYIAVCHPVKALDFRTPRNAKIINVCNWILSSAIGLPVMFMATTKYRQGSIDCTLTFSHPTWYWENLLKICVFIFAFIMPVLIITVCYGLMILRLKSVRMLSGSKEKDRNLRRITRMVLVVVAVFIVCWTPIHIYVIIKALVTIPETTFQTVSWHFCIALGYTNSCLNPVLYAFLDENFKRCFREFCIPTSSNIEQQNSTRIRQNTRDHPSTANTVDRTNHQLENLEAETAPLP

Chain of Kappa-type opioid receptor (P41145 whole entry): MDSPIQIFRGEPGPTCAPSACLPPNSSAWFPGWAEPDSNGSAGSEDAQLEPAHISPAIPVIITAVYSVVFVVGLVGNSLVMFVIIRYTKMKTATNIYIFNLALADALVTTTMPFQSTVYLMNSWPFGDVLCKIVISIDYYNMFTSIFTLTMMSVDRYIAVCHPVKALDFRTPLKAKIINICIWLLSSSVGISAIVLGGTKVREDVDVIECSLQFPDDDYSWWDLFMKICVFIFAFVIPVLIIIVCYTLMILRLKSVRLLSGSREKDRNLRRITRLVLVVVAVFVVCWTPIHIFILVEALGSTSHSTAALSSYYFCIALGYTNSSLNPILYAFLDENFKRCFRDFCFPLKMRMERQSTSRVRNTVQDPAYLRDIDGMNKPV
Chain of Delta-type opioid receptor (P41143 whole entry): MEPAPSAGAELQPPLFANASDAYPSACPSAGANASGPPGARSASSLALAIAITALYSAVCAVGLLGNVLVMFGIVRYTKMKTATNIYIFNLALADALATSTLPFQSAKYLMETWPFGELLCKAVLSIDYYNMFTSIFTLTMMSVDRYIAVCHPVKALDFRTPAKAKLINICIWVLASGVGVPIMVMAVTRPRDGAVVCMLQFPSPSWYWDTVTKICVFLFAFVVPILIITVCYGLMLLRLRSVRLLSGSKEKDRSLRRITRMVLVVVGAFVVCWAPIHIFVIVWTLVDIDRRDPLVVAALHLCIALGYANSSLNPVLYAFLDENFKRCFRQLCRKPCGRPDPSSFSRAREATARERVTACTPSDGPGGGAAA

CN1C(=O)CNC(=O)[C@H](NC(=O)[C@@H](N)Cc2ccc(O)cc2)CCCCNC(=O)C[C@@H](C(=O)N2CCC[C@@H]2C(N)=O)NC(=O)[C@@H]1Cc1ccccc1
Activity [1]: Non-Toxic | selectivity ratio [2]: 54 | EC50 [3]: 505 nM | EC50 [4]: 17.5 nM | half-life at 0.01 mol/L [5]: 1270 min | selectivity ratio [6]: 13 | EC50 [7]: 2.5 nM
